Laboratory results from a compilation of properties of binary mixtures (doi:10.1021/acs.jced.9b00738).

Test: xn = mol fraction of the nth substance listed
Details: 100 kPa

Molecule `CCCC[N+]1(C)CCCC1.O=S(=O)([N-]S(=O)(=O)C(F)(F)F)C(F)(F)F` + CCOC(=O)OCC has an electrical conductivity (293.15 K, x1 = 0.1506) of 0.443 S/m, a viscosity (293.15 K, x1 = 0.1506) of 2.76 mPa·s and an electrical conductivity (293.15 K, x1 = 0.25) of 0.584 S/m. The electrical conductivity (293.15 K, x1 = 0.2973) was 0.613 S/m, the viscosity (293.15 K, x1 = 0.2973) was 6.62 mPa·s and the electrical conductivity (293.15 K, x1 = 0.349) was 0.608 S/m. For the same molecule, the viscosity (293.15 K, x1 = 0.349) was 8.69 mPa·s, the electrical conductivity (293.15 K, x1 = 0.4) was 0.531 S/m and the viscosity (293.15 K, x1 = 0.4) was 11.2 mPa·s. It also gave an electrical conductivity (293.15 K, x1 = 0.6002) of 0.34 S/m, a viscosity (293.15 K, x1 = 0.6002) of 29.01 mPa·s and an electrical conductivity (293.15 K, x1 = 0.6985) of 0.288 S/m. The viscosity (293.15 K, x1 = 0.6985) was 41 mPa·s, the electrical conductivity (293.15 K, x1 = 0.8006) was 0.254 S/m and the viscosity (293.15 K, x1 = 0.8006) was 55.9 mPa·s. The electrical conductivity (293.15 K, x1 = 1) was 0.216 S/m, the viscosity (293.15 K, x1 = 1) was 98 mPa·s and the electrical conductivity (298.15 K, x1 = 0.1001) was 0.372 S/m. For the same molecule, the viscosity (298.15 K, x1 = 0.1001) was 1.65 mPa·s, the electrical conductivity (298.15 K, x1 = 0.1506) was 0.494 S/m and the viscosity (298.15 K, x1 = 0.1506) was 2.49 mPa·s. For the same molecule, the electrical conductivity (298.15 K, x1 = 0.2) was 0.586 S/m, the viscosity (298.15 K, x1 = 0.2) was 3.49 mPa·s and the electrical conductivity (298.15 K, x1 = 0.25) was 0.646 S/m. It also gave an electrical conductivity (298.15 K, x1 = 0.2973) of 0.701 S/m, a viscosity (298.15 K, x1 = 0.2973) of 5.86 mPa·s and an electrical conductivity (298.15 K, x1 = 0.349) of 0.693 S/m. The viscosity (298.15 K, x1 = 0.349) was 7.74 mPa·s, the electrical conductivity (298.15 K, x1 = 0.4) was 0.622 S/m and the viscosity (298.15 K, x1 = 0.4) was 9.95 mPa·s. The electrical conductivity (298.15 K, x1 = 0.4998) was 0.514 S/m, the viscosity (298.15 K, x1 = 0.4998) was 15.45 mPa·s and the electrical conductivity (298.15 K, x1 = 0.6002) was 0.425 S/m. The viscosity (298.15 K, x1 = 0.6002) was 24.22 mPa·s, the electrical conductivity (298.15 K, x1 = 0.6985) was 0.365 S/m and the viscosity (298.15 K, x1 = 0.6985) was 34.1 mPa·s. For the same molecule, the electrical conductivity (298.15 K, x1 = 0.8006) was 0.329 S/m, the viscosity (298.15 K, x1 = 0.8006) was 46 mPa·s and the electrical conductivity (298.15 K, x1 = 0.8934) was 0.3 S/m. For the same molecule, the viscosity (298.15 K, x1 = 0.8934) was 58.6 mPa·s, the electrical conductivity (298.15 K, x1 = 1) was 0.275 S/m and the viscosity (298.15 K, x1 = 1) was 76.6 mPa·s. The electrical conductivity (303.15 K, x1 = 0.1001) was 0.401 S/m, the viscosity (303.15 K, x1 = 0.1001) was 1.5 mPa·s and the electrical conductivity (303.15 K, x1 = 0.1506) was 0.543 S/m. The viscosity (303.15 K, x1 = 0.1506) was 2.26 mPa·s, the electrical conductivity (303.15 K, x1 = 0.2973) was 0.785 S/m and the viscosity (303.15 K, x1 = 0.2973) was 5.21 mPa·s. For the same molecule, the electrical conductivity (303.15 K, x1 = 0.349) was 0.782 S/m, the viscosity (303.15 K, x1 = 0.349) was 7 mPa·s and the electrical conductivity (303.15 K, x1 = 0.4) was 0.714 S/m. The viscosity (303.15 K, x1 = 0.4) was 8.78 mPa·s, the electrical conductivity (303.15 K, x1 = 0.4998) was 0.601 S/m and the viscosity (303.15 K, x1 = 0.4998) was 13.25 mPa·s. The electrical conductivity (303.15 K, x1 = 0.6002) was 0.509 S/m, the viscosity (303.15 K, x1 = 0.6002) was 20.02 mPa·s and the electrical conductivity (303.15 K, x1 = 0.6985) was 0.438 S/m. It also gave a viscosity (303.15 K, x1 = 0.6985) of 28.53 mPa·s, an electrical conductivity (303.15 K, x1 = 0.8006) of 0.395 S/m and a viscosity (303.15 K, x1 = 0.8006) of 38 mPa·s. For the same molecule, the electrical conductivity (303.15 K, x1 = 0.8934) was 0.371 S/m, the viscosity (303.15 K, x1 = 0.8934) was 46.9 mPa·s and the electrical conductivity (303.15 K, x1 = 1) was 0.34 S/m. It also gave a viscosity (303.15 K, x1 = 1) of 61.6 mPa·s, an electrical conductivity (308.15 K, x1 = 0.1001) of 0.436 S/m and a viscosity (308.15 K, x1 = 0.1001) of 1.35 mPa·s. It also gave an electrical conductivity (308.15 K, x1 = 0.1506) of 0.591 S/m, a viscosity (308.15 K, x1 = 0.1506) of 2.03 mPa·s and an electrical conductivity (308.15 K, x1 = 0.2) of 0.703 S/m. It also gave a viscosity (308.15 K, x1 = 0.2) of 2.85 mPa·s, an electrical conductivity (308.15 K, x1 = 0.25) of 0.8 S/m and an electrical conductivity (308.15 K, x1 = 0.2973) of 0.876 S/m. The viscosity (308.15 K, x1 = 0.2973) was 4.79 mPa·s, the electrical conductivity (308.15 K, x1 = 0.349) was 0.867 S/m and the viscosity (308.15 K, x1 = 0.349) was 6.3 mPa·s. The electrical conductivity (308.15 K, x1 = 0.4) was 0.803 S/m, the viscosity (308.15 K, x1 = 0.4) was 7.89 mPa·s and the electrical conductivity (308.15 K, x1 = 0.6002) was 0.612 S/m. It also gave a viscosity (308.15 K, x1 = 0.6002) of 17 mPa·s, an electrical conductivity (308.15 K, x1 = 0.6985) of 0.534 S/m and a viscosity (308.15 K, x1 = 0.6985) of 23.82 mPa·s. It also gave an electrical conductivity (308.15 K, x1 = 0.8006) of 0.485 S/m, a viscosity (308.15 K, x1 = 0.8006) of 32.02 mPa·s and an electrical conductivity (308.15 K, x1 = 1) of 0.411 S/m. It also gave a viscosity (308.15 K, x1 = 1) of 50.8 mPa·s, an electrical conductivity (313.15 K, x1 = 0.1506) of 0.637 S/m and a viscosity (313.15 K, x1 = 0.1506) of 1.83 mPa·s. The electrical conductivity (313.15 K, x1 = 0.2) was 0.766 S/m, the viscosity (313.15 K, x1 = 0.2) was 2.56 mPa·s and the electrical conductivity (313.15 K, x1 = 0.2973) was 0.968 S/m. For the same molecule, the viscosity (313.15 K, x1 = 0.2973) was 4.33 mPa·s, the electrical conductivity (313.15 K, x1 = 0.349) was 0.957 S/m and the viscosity (313.15 K, x1 = 0.349) was 5.76 mPa·s. It also gave an electrical conductivity (313.15 K, x1 = 0.4) of 0.908 S/m, a viscosity (313.15 K, x1 = 0.4) of 7.11 mPa·s and an electrical conductivity (313.15 K, x1 = 0.4998) of 0.804 S/m. For the same molecule, the viscosity (313.15 K, x1 = 0.4998) was 10.46 mPa·s, the electrical conductivity (313.15 K, x1 = 0.6002) was 0.73 S/m and the viscosity (313.15 K, x1 = 0.6002) was 14.69 mPa·s. It also gave an electrical conductivity (313.15 K, x1 = 0.6985) of 0.649 S/m, a viscosity (313.15 K, x1 = 0.6985) of 19.99 mPa·s and an electrical conductivity (313.15 K, x1 = 0.8006) of 0.588 S/m. For the same molecule, the viscosity (313.15 K, x1 = 0.8006) was 26 mPa·s, the electrical conductivity (313.15 K, x1 = 0.8934) was 0.535 S/m and the viscosity (313.15 K, x1 = 0.8934) was 31.7 mPa·s. For the same molecule, the electrical conductivity (313.15 K, x1 = 1) was 0.491 S/m, the viscosity (313.15 K, x1 = 1) was 41.6 mPa·s and the electrical conductivity (318.15 K, x1 = 0.1001) was 0.501 S/m. The viscosity (318.15 K, x1 = 0.1001) was 1.09 mPa·s, the electrical conductivity (318.15 K, x1 = 0.1506) was 0.684 S/m and the viscosity (318.15 K, x1 = 0.1506) was 1.64 mPa·s. For the same molecule, the electrical conductivity (318.15 K, x1 = 0.2) was 0.83 S/m, the viscosity (318.15 K, x1 = 0.2) was 2.28 mPa·s and the electrical conductivity (318.15 K, x1 = 0.25) was 1 S/m. For the same molecule, the electrical conductivity (318.15 K, x1 = 0.2973) was 1.05 S/m, the viscosity (318.15 K, x1 = 0.2973) was 3.9 mPa·s and the electrical conductivity (318.15 K, x1 = 0.349) was 1.05 S/m. For the same molecule, the viscosity (318.15 K, x1 = 0.349) was 5.21 mPa·s, the electrical conductivity (318.15 K, x1 = 0.4) was 1 S/m and the viscosity (318.15 K, x1 = 0.4) was 6.45 mPa·s. For the same molecule, the electrical conductivity (318.15 K, x1 = 0.4998) was 0.903 S/m, the viscosity (318.15 K, x1 = 0.4998) was 9.01 mPa·s and the electrical conductivity (318.15 K, x1 = 0.6002) was 0.831 S/m. It also gave a viscosity (318.15 K, x1 = 0.6002) of 13 mPa·s, an electrical conductivity (318.15 K, x1 = 0.6985) of 0.746 S/m and a viscosity (318.15 K, x1 = 0.6985) of 17.01 mPa·s. For the same molecule, the electrical conductivity (318.15 K, x1 = 0.8006) was 0.673 S/m, the viscosity (318.15 K, x1 = 0.8006) was 22 mPa·s and the electrical conductivity (318.15 K, x1 = 0.8934) was 0.62 S/m. The viscosity (318.15 K, x1 = 0.8934) was 26.75 mPa·s, the electrical conductivity (318.15 K, x1 = 1) was 0.581 S/m and the viscosity (318.15 K, x1 = 1) was 34.6 mPa·s. For the same molecule, the electrical conductivity (323.15 K, x1 = 0.1506) was 0.742 S/m, the viscosity (323.15 K, x1 = 0.1506) was 1.46 mPa·s and the electrical conductivity (323.15 K, x1 = 0.2) was 0.901 S/m. The viscosity (323.15 K, x1 = 0.2) was 2.05 mPa·s, the electrical conductivity (323.15 K, x1 = 0.25) was 1.1 S/m and the electrical conductivity (323.15 K, x1 = 0.2973) was 1.14 S/m. For the same molecule, the viscosity (323.15 K, x1 = 0.2973) was 3.52 mPa·s, the electrical conductivity (323.15 K, x1 = 0.349) was 1.15 S/m and the viscosity (323.15 K, x1 = 0.349) was 4.63 mPa·s. For the same molecule, the electrical conductivity (323.15 K, x1 = 0.4) was 1.1 S/m, the viscosity (323.15 K, x1 = 0.4) was 5.79 mPa·s and the electrical conductivity (323.15 K, x1 = 0.4998) was 1.02 S/m. It also gave a viscosity (323.15 K, x1 = 0.4998) of 8.05 mPa·s, an electrical conductivity (323.15 K, x1 = 0.6002) of 0.935 S/m and a viscosity (323.15 K, x1 = 0.6002) of 11.01 mPa·s. For the same molecule, the electrical conductivity (323.15 K, x1 = 0.6985) was 0.865 S/m, the viscosity (323.15 K, x1 = 0.6985) was 14.4 mPa·s and the electrical conductivity (323.15 K, x1 = 0.8934) was 0.745 S/m. It also gave a viscosity (323.15 K, x1 = 0.8934) of 22.8 mPa·s, an electrical conductivity (323.15 K, x1 = 1) of 0.681 S/m and a viscosity (323.15 K, x1 = 1) of 29.46 mPa·s.

For `CCOC(=O)OCC` + CCCC[N+]1(C)CCCC1.O=S(=O)([N-]S(=O)(=O)C(F)(F)F)C(F)(F)F, the viscosity (293.15 K, x2 = 0) was 0.8 mPa·s, the viscosity (298.15 K, x2 = 0) was 0.75 mPa·s and the viscosity (303.15 K, x2 = 0) was 0.7 mPa·s. The viscosity (308.15 K, x2 = 0) was 0.65 mPa·s, the viscosity (313.15 K, x2 = 0) was 0.61 mPa·s and the viscosity (318.15 K, x2 = 0) was 0.58 mPa·s.
